# Measurements: ChEMBL document CHEMBL3885861, “Open TG-GATES”
# Species: Rattus norvegicus
# Test: Open TG-GATES - Regimen: Single
# Type: toxicity, organism-based, Sprague-Dawley
# Set-up: regimen Single, gender Male, age 6 weeks
# Conditions: in vivo, po, 100 mg/kg, route gavage, dose level Low; for APTT / Bas / Eos / Fbg / Hb / Ht / Lym / MCV / Mono / Neu / PT / Plat / RBC / Ret / WBC / MCH / MCHC: tissue Blood; for KIDNEY_L / KIDNEY_R / KIDNEY_TOTAL: tissue Kidney; for LIVER: tissue Liver; for ALP / ALT / AST / BUN / CRE / Ca / DBIL / GLC / IP / K / LDH / Na / PL / RALB / TBIL / TC / TG / TP / gamma-GTP: tissue Plasma
smiles,measurement,setting,value
O=C(O)c1cn(C2CC2)c2cc(N3CCNCC3)c(F)cc2c1=O [CIPROFLOXACIN],TERMINAL_BW,3 h,185.5 g
same,APTT,3 h,16.8 s
same,Bas,3 h,0%
same,Eos,3 h,0.8%
same,Fbg,3 h,213 mg/dL
same,Hb,3 h,12.9 g/dL
same,Ht,3 h,38.6%
same,Lym,3 h,78.4%
same,MCV,3 h,67.5 fL
same,Mono,3 h,8.4%
same,Neu,3 h,12.8%
same,PT,3 h,12.3 s
same,Plat,3 h,104.3 x10_4/uL
same,RBC,3 h,572.8 x10_4/ul
same,Ret,3 h,10.8%
same,WBC,3 h,106 x10_2/uL
same,KIDNEY_L,3 h,0.8 g
same,KIDNEY_R,3 h,0.9 g
same,KIDNEY_TOTAL,3 h,1.7 g
same,LIVER,3 h,9.1 g
same,ALP,3 h,856.2 IU/L
same,ALT,3 h,35 IU/L
same,AST,3 h,68.6 IU/L
same,BUN,3 h,12.4 mg/dL
same,CRE,3 h,0.5 mg/dL
same,Ca,3 h,11.2 mg/dL
same,DBIL,3 h,0.018 mg/dL
same,GLC,3 h,192 mg/dL
same,IP,3 h,9.8 mg/dL
same,K,3 h,4.9 meq/L
same,LDH,3 h,81.4 IU/L
same,Na,3 h,139 meq/L
same,PL,3 h,144.4 mg/dL
same,RALB,3 h,3.7 g/dL
same,TBIL,3 h,0.4 mg/dL
same,TC,3 h,84.6 mg/dL
same,TG,3 h,45.6 mg/dL
same,TP,3 h,5.5 g/dL
same,gamma-GTP,3 h,1.4 IU/L
same,TERMINAL_BW,6 h,179.2 g
same,APTT,6 h,17.2 s
same,Bas,6 h,0%
same,Eos,6 h,0.4%
same,Fbg,6 h,216.6 mg/dL
same,Hb,6 h,13 g/dL
same,Lym,6 h,73%
same,MCH,6 h,21.4 pg
same,MCHC,6 h,33.2%
same,MCV,6 h,64.5 fL
same,Mono,6 h,6%
same,PT,6 h,12.4 s
same,Plat,6 h,102.1 x10_4/uL
same,RBC,6 h,608.4 x10_4/ul
same,Ret,6 h,10.5%
same,WBC,6 h,119.3 x10_2/uL
same,KIDNEY_L,6 h,0.9 g
same,KIDNEY_R,6 h,0.9 g
same,KIDNEY_TOTAL,6 h,1.7 g
same,LIVER,6 h,8.1 g
same,ALP,6 h,779.4 IU/L
same,ALT,6 h,33.6 IU/L
same,AST,6 h,70.4 IU/L
same,BUN,6 h,10.8 mg/dL
same,CRE,6 h,0.5 mg/dL
same,Ca,6 h,11.4 mg/dL
same,DBIL,6 h,0.05 mg/dL
same,GLC,6 h,182.4 mg/dL
same,IP,6 h,10.3 mg/dL
same,K,6 h,5.4 meq/L
same,LDH,6 h,98 IU/L
same,Na,6 h,138.8 meq/L
same,PL,6 h,128.2 mg/dL
same,RALB,6 h,3.9 g/dL
same,TBIL,6 h,0.3 mg/dL
same,TC,6 h,71.4 mg/dL
same,TG,6 h,39.8 mg/dL
same,TP,6 h,5.6 g/dL
same,gamma-GTP,6 h,1 IU/L
same,TERMINAL_BW,9 h,174.2 g
same,APTT,9 h,16.2 s
same,Bas,9 h,0%
same,Eos,9 h,1%
same,Fbg,9 h,215 mg/dL
same,Hb,9 h,13.5 g/dL
same,Lym,9 h,77.2%
same,MCV,9 h,67.9 fL
same,Mono,9 h,5.2%
same,Neu,9 h,17%
same,PT,9 h,11.5 s
same,Plat,9 h,100.5 x10_4/uL
same,RBC,9 h,605.8 x10_4/ul
same,Ret,9 h,9.9%
same,WBC,9 h,77 x10_2/uL
same,KIDNEY_L,9 h,0.9 g
same,KIDNEY_R,9 h,0.9 g
same,KIDNEY_TOTAL,9 h,1.8 g
same,LIVER,9 h,7.3 g
same,ALP,9 h,813.2 IU/L
same,ALT,9 h,33.6 IU/L
same,AST,9 h,68.8 IU/L
same,BUN,9 h,11 mg/dL
same,CRE,9 h,0.5 mg/dL
same,Ca,9 h,10.9 mg/dL
same,DBIL,9 h,0.066 mg/dL
same,GLC,9 h,190 mg/dL
same,IP,9 h,11.5 mg/dL
same,K,9 h,4.9 meq/L
same,LDH,9 h,94.2 IU/L
same,Na,9 h,139.6 meq/L
same,PL,9 h,142.4 mg/dL
same,RALB,9 h,3.8 g/dL
same,TBIL,9 h,0.2 mg/dL
same,TC,9 h,88.4 mg/dL
same,TP,9 h,5.6 g/dL
same,gamma-GTP,9 h,1.4 IU/L
same,TERMINAL_BW,24 h,191.7 g
same,Bas,24 h,0%
same,Eos,24 h,1%
same,Fbg,24 h,218 mg/dL
same,Hb,24 h,13.5 g/dL
same,Ht,24 h,40.5%
same,Lym,24 h,77%
same,MCH,24 h,22.1 pg
same,MCHC,24 h,33.4%
same,MCV,24 h,66.3 fL
same,Mono,24 h,7%
same,Neu,24 h,15%
same,Plat,24 h,105.4 x10_4/uL
same,RBC,24 h,610.4 x10_4/ul
same,Ret,24 h,9.2%
same,WBC,24 h,102.8 x10_2/uL
same,KIDNEY_L,24 h,0.9 g
same,KIDNEY_R,24 h,0.9 g
same,KIDNEY_TOTAL,24 h,1.7 g
same,LIVER,24 h,8 g
same,ALP,24 h,953.6 IU/L
same,ALT,24 h,40.4 IU/L
same,AST,24 h,74.6 IU/L
same,BUN,24 h,17.2 mg/dL
same,CRE,24 h,0.5 mg/dL
same,Ca,24 h,11.2 mg/dL
same,DBIL,24 h,0.058 mg/dL
same,GLC,24 h,191.6 mg/dL
same,IP,24 h,9.2 mg/dL
same,K,24 h,4.7 meq/L
same,Na,24 h,139.4 meq/L
same,PL,24 h,161.4 mg/dL
same,RALB,24 h,3.8 g/dL
same,TBIL,24 h,0.3 mg/dL
same,TC,24 h,100 mg/dL
same,TP,24 h,5.9 g/dL
